Results as given in ChEMBL document CHEMBL1201862, “PubChem BioAssay data set” (2004).
Activity calls are given as the source filed them.

How the values were obtained:
X-box-binding protein 1 = target: T1, X-box-binding protein 1 (Homo sapiens, UniProt P17861); type: functional, Cricetulus griseus;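 further: confirmatory dose-response counter-screen serving a CHOP assay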
T1 sequence (P17861 whole entry): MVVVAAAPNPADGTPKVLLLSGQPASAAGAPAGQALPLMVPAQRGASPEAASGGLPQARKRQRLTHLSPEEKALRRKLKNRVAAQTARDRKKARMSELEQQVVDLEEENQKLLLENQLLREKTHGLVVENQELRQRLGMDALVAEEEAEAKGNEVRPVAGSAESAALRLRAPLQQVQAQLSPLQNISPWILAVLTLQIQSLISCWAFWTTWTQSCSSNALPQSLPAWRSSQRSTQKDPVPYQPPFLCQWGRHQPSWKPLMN

Estrogen receptor beta = Estrogen receptor beta (Homo sapiens, UniProt Q92731); test: ERβ–SRC-3 coactivator interaction inhibitors, confirmation, orthogonal assay, biochemical, ELISA, streptavidin-HRP readout (AID 1060)
Bcl-2-like protein 10 = target: T2, Bcl-2-like protein 10 (Homo sapiens, UniProt Q9HD36); test: displacers of TR3 peptide from Bcl-B, primary screen, selectivity assay for Bfl-1 inhibitor project, biochemical, fluorescence polarization, FITC-TR3 peptide (AID 748);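 further: fluorescence polarization from a fluorescein-labelled TR3 peptide binding purified Bcl-B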
T2 sequence (Q9HD36 whole entry): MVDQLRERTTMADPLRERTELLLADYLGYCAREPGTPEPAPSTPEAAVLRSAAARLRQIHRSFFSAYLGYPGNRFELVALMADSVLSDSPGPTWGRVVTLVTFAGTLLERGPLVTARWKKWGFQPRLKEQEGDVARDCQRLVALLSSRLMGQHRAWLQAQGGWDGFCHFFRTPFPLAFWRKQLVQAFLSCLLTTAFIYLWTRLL

[1] = target: Intestinal-type alkaline phosphatase (Homo sapiens, UniProt P09923); test: Dose Response confirmation of uHTS hits from a small molecule inhibitors of human intestinal alkaline phosphatase via a luminescent assay. [Related pubchem assays (depositor defined):AID2544, AID2574]; type: functional
Cytochrome P450 2D6 = Cytochrome P450 2D6 (Homo sapiens, UniProt P10635); test: qHTS Assay for Inhibitors and Substrates of Cytochrome P450 2D6. [Related pubchem assays: 410 ]; type: ADME; settings: read-out: Potency
Cytochrome P450 3A4 = Cytochrome P450 3A4 (Homo sapiens, UniProt P08684); settings: Potency;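 further: confirmatory qHTS run detecting inhibitors and substrates of CYP3A4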
Cytochrome P450 2C9 = Cytochrome P450 2C9 (Homo sapiens, UniProt P11712); settings: Potency
Estrogen receptor = target: T3, Estrogen receptor (Homo sapiens, UniProt P03372);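 further: potency for inhibiting coactivator peptide recruitment to the receptor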
T3 sequence (P03372 whole entry): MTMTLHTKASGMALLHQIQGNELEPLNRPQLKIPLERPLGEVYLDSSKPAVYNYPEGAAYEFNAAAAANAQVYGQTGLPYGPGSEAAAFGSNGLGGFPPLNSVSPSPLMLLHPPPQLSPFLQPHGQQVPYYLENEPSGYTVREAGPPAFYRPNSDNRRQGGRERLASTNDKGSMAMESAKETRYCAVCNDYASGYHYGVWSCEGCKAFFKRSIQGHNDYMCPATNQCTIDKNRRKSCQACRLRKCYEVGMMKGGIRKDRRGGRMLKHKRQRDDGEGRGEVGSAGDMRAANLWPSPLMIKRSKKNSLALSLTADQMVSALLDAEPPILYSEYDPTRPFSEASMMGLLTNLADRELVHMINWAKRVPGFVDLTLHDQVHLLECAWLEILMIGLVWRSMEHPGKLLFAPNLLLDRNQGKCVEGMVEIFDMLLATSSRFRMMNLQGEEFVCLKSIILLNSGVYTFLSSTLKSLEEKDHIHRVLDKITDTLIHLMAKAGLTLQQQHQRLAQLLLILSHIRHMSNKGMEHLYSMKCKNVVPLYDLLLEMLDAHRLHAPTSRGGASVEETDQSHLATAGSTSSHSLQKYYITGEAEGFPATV

Genome polyprotein = Genome polyprotein (dengue virus type 2, UniProt P29990); test: Dengue-2 NS5 methyltransferase inhibitors, primary screen, biochemical, confirmation dose response (AID 588689); type: functional
NS3 = NS3 (Hepatitis C virus, UniProt A3EZJ3); test: PubChem AID 2173; parameters: species or system Hepacivirus hominis
Troponin, cardiac muscle = Troponin, cardiac muscle (Homo sapiens, UniProt P19429+P45379+P63316); test: inhibitors of cardiac thin filament calcium sensitivity, dose response, biochemical, fluorescence, cardiac regulated thin filaments, triplicate IC50 (AID 504742); type: protein-complex assay
Prothrombin = Prothrombin (Bos taurus, UniProt P00735); test: thrombin inhibition, dose response, biochemical, fluorescence polarization, uHTS hits (AID 602369); type: functional
[2] = target: 72 kDa type IV collagenase (Homo sapiens, UniProt P08253); test: Dose Response validation of uHTS RPN11 inhibitor hits using a MMP-2 Fluorescence assay.; type: functional
Large T antigen = Large T antigen (Simian virus 40, UniProt P03070); type: functional, Betapolyomavirus macacae;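 further: Confirmatory-stage PubChem screen for compounds that inhibit SV40 T antigen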
ORF 73 = target: T4, ORF 73 (Human herpesvirus 8, UniProt O40947); test: inhibitors of C-LANA binding to LBS DNA, dose response, biochemical, fluorescence polarization, cherry-picked samples (AID 504725); parameters: species or system Human gammaherpesvirus 8;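 further: fluorescence polarization of a labeled DNA duplex reporting LANA DNA binding; potency is for inhibitors that block LANA binding to the DNA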
T4 sequence (O40947 whole entry): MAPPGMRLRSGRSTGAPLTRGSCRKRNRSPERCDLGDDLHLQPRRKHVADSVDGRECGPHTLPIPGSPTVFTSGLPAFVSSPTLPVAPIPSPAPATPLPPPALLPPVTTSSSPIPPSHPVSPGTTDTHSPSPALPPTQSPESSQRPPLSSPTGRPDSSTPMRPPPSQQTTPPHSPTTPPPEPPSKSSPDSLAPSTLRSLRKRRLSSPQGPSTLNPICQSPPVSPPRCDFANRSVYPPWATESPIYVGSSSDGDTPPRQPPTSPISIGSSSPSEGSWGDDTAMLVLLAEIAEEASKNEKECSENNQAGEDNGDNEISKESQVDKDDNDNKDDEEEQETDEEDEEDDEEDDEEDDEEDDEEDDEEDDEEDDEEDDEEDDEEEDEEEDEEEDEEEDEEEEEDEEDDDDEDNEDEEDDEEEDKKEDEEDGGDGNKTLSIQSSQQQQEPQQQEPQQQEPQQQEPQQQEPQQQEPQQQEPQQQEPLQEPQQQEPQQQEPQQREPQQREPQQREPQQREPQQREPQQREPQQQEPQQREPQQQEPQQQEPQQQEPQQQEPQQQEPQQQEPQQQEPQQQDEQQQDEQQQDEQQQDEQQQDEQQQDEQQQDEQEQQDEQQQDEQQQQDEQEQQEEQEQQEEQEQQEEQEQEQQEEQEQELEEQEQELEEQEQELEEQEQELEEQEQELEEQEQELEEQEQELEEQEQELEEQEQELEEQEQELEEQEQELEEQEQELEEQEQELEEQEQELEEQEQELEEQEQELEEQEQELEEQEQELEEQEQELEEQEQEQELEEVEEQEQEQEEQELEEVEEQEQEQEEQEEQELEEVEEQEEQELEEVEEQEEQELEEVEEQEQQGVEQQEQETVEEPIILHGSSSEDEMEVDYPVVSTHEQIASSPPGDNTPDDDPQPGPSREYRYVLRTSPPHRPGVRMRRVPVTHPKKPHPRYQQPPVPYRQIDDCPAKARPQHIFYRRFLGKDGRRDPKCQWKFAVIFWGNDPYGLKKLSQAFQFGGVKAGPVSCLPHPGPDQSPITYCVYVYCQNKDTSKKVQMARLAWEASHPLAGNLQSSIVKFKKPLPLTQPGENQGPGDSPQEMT

[3] = target: 26S proteasome non-ATPase regulatory subunit 14 (Homo sapiens, UniProt O00487); test: inhibition of proteasome subunit RPN11 – biochemical, fluorescence polarization, uHTS hits, confirmation (AID 602368); type: functional
[4] = THP-1 cell cytotoxicity, dose response, cytotoxicity control for non-replicating M. tuberculosis project (AID 489025); type: functional
[5] = HepG2 cell cytotoxicity, dose response, cytotoxicity control for non-replicating M. tuberculosis project (AID 489018); type: functional; settings: Mycobacterium tuberculosis
INS1 = test: beta cell apoptosis inhibitors, cytokine rescue, dose response, luminescence, retest (AID 449756); type: functional, cell-based; settings: Rattus norvegicus;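 further: cell death triggered by IL-1 beta plus TNF-alpha plus IFN-gamma mixture; protective hits raise ATP signal compared with cytokine alone wells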
cells = type: functional
[6] = Vero E6 cell cytotoxicity, dose response, cytotoxicity control for non-replicating M. tuberculosis project, secondary assay (AID 492998); type: functional, VeroE6; settings: Vero C1008

For O=C(Oc1ccc(O)cc1)C12CC3CC(CC(C3)C1)C2, the “Absolute IC50 (XBP1)” value (X-box-binding protein 1) was 10 µM.
In the case of CCN1CCN(c2ccc(NC(=O)c3cccc4ncccc34)cc2)CC1, the IC50 (Estrogen receptor beta) is reported as 0.121 µM (not active) and the IC50 (Bcl-2-like protein 10) is reported as 50.1 µM (inactive).
For O=C(NC1CCCCCC1)c1ccc(-n2cnnc2)cc1, the IC50 [1] was > 100 µM (inactive).
With C=CCc1cccc(C2C(C)CCC3C(=O)N4C(CCC(C)C4c4cccc(CC=C)c4)C(=O)N32)c1 (centres undefined) the AC50 (Cytochrome P450 2D6) was 3.16 µM (inconclusive), the AC50 (Cytochrome P450 3A4) was 0.2 µM (inconclusive) and the AC50 (Cytochrome P450 2C9) was 3.98 µM (inconclusive).
In the case of Cc1ccccc1NC(=O)CSc1nnc(-c2ccco2)c(-c2ccco2)n1, the IC50 (Estrogen receptor beta) is reported as 1.98 µM (not active), the IC50 (Estrogen receptor) is reported as 14.9 µM (active) and the IC50 (Genome polyprotein) is reported as 64.7 µM (active). The IC50 (NS3) was 8.62 µM (active) and the IC50 (Bcl-2-like protein 10) was 27.3 µM (active).
With O=C(O)C(Cc1ccccc1)N1C(=O)/C(=C/C=C/c2ccco2)SC1=S (centres undefined) the IC50 (Troponin, cardiac muscle) was > 71.5 µM (inactive), the IC50 (Prothrombin) was 75.3 µM (active) and the IC50 [2] was 0.947 µM (active). For the same compound, the IC50 (Large T antigen) was 33.5 µM (active), the AC50 (ORF 73) was 108 µM (active) and the IC50 [3] was 7.33 µM (active).
With C/C(N)=C(/C#N)C(=O)CSc1nc2ccccc2[nH]1 the IC50 (Bcl-2-like protein 10) was 22.3 µM (active).
With C/C(=N\NC(=O)c1ccccc1OCc1ccc(F)cc1)c1ccccn1 the CC50 [4] was 0.765 µM (active), the CC50 [5] was 3.6 µM (active) and the AC50 (INS1) was 1.83 µM (active). The IC50 (cells) was 3.02 µM (active) and the CC50 [6] was 2.69 µM (active).
